Assay results taken from ChEMBL document CHEMBL4334470, “Small molecule modulators targeting protein kinase CK1 and CK2” (Eur J Med Chem, 2019).

Assays:
[1] = molecular target: T1, Casein kinase II subunit alpha (Homo sapiens, UniProt P68400); assay: Inhibition of CK2alpha (unknown origin)
[2] = molecular target: T1, Casein kinase II subunit alpha; assay: Inhibition of CK2alpha (unknown origin) using RRRADDSDDDDD as substrate in presence of [gamma33P]-ATP by autoradiography
[3] = molecular target: Casein kinase I isoform alpha (Homo sapiens, UniProt P48729); assay: Inhibition of CK1alpha (unknown origin)
[4] = molecular target: Casein kinase I delta/epsilon (Homo sapiens, UniProt P48730+P49674); assay: Inhibition of CK1delta/CK1epsilon (unknown origin); format: protein-complex assay
Casein kinase I = assay: Inhibition of CK1 (unknown origin); format: protein assay, Homo sapiens

T1 sequence (P68400 whole entry): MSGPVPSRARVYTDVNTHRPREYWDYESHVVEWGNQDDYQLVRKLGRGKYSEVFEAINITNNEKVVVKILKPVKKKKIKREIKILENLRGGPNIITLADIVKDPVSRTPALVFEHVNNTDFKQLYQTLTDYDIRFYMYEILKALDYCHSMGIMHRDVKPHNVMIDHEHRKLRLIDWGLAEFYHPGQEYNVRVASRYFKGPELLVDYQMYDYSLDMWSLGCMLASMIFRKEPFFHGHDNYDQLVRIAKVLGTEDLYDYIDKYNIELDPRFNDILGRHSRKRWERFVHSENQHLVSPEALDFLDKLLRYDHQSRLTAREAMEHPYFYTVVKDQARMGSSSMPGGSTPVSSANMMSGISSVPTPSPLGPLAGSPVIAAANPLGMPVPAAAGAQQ
Chain of Casein kinase I delta/epsilon (P48730 whole entry): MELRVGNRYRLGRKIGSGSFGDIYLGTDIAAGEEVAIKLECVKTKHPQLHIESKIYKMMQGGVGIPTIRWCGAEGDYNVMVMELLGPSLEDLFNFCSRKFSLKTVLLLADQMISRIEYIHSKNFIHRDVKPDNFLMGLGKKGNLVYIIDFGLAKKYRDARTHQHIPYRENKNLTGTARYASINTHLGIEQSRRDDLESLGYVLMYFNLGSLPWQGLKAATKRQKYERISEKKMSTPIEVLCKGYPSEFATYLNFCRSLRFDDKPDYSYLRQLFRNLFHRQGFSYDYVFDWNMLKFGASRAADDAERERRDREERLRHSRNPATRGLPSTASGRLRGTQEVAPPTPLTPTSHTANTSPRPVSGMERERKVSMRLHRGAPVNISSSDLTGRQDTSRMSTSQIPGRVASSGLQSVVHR
Chain of Casein kinase I delta/epsilon (P49674 whole entry): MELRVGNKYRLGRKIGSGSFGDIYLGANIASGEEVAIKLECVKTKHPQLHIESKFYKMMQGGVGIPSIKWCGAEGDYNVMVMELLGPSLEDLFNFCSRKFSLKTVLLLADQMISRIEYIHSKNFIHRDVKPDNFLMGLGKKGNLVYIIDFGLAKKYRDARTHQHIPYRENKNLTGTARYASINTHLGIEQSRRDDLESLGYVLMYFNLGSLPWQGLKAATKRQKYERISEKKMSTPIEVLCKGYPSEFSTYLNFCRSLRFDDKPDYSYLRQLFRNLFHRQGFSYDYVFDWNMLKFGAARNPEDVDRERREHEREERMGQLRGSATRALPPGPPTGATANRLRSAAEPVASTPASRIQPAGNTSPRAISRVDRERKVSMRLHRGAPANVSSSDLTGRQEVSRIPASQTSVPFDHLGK
Chain of Casein kinase I isoform alpha (P48729 whole entry, canonical isoform): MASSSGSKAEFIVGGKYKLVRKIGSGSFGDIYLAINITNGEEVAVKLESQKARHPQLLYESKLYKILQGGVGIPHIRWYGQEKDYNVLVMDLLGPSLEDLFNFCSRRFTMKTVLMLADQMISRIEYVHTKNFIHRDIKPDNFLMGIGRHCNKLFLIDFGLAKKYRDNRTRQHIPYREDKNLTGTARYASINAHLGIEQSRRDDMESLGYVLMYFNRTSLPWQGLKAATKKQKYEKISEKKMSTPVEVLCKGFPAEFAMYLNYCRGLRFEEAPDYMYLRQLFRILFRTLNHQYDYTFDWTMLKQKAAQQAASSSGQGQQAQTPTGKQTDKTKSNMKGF

Ki [1] | Structure (SMILES) | other results
780 nM | O=c1c2c(O)cccc2oc2c([N+](=O)[O-])ccc(O)c12 | 
 | O=C(O)/C=C/c1cc(Br)c(Br)c(Br)c1Br | Ki [2]: 77 nM
60 nM | Cc1c(Br)c(=O)oc2c(Br)c(O)ccc12 | 
 | COc1cc(OC)c(/C=C2\C(=O)Nc3ccccc32)c(OC)c1 | IC50 [3]: 16000 nM; IC50 [4]: 1000 nM
220 nM | CCCCCCCCCCCC1=C(O)C(=O)C2=C(OC(N)=C(C#N)C2[N+](=O)[O-])C1=O (stereo unspecified) | 
7 nM | O=c1oc2c(Br)c(O)ccc2c2ccc(O)cc12 | 
 | NCCNS(=O)(=O)c1ccc(Cl)c2ccncc12 | IC50 (Casein kinase I): 9500 nM
800 nM | O=C1c2c(O)cccc2C(=O)c2c([N+](=O)[O-])ccc(O)c21 | 
20 nM | O=c1oc2c(O)c(O)cc3c(=O)oc4c(O)c(O)cc1c4c23 [ELLAGIC ACID] | 
350 nM | O=c1c(O)c(-c2ccc(O)c(O)c2)oc2cc(O)ccc12 [FISETIN] | 
